According to ChEMBL document CHEMBL1128309, “Antitumor activity of 9(R)-dihydrotaxane analogs” (1995):

Legend:
Assay type in all cases: functional
[1] = test system: A549; assay: Cytotoxicity against human lung carcinoma A549 cell line
[2] = test system: B16-F10; assay: Cytotoxicity against mouse melanoma B16F10 cell line
[3] = test system: HT-29; assay: Cytotoxicity against human colon adenocarcinoma HT-29 cell line
[4] = test system: P388; assay: Cytotoxicity against mouse lymphocytic leukemia P388 cell line
[5] = ED50 compared to that of taxol.

SMILES: CO[C@H]1[C@H](OC(C)=O)C2=C(C)[C@@H](OC(=O)[C@H](O)[C@@H](NC(=O)OC(C)(C)C)c3ccccc3)C[C@@](O)([C@@H](OC(=O)c3ccccc3)[C@@H]3[C@]4(OC(C)=O)CO[C@@H]4C[C@H](O)[C@]31C)C2(C)C
- Cytotoxicity [1]: 0.1 ng/mL
- Cytotoxicity [2]: 0.9 ng/mL
- Cytotoxicity [3]: 0.5 ng/mL
- Cytotoxicity [4]: 1.3 ng/mL
- Ratio [5]: 0.51

SMILES: CC(=O)O[C@@H]1C2=C(C)[C@@H](OC(=O)[C@H](O)[C@@H](NC(=O)c3ccccc3)c3ccccc3)C[C@@](O)([C@@H](OC(=O)c3ccccc3)[C@@H]3[C@]4(OC(C)=O)CO[C@@H]4C[C@H](OC(C)=O)[C@@]3(C)[C@H]1OC(C)=O)C2(C)C
- Cytotoxicity [1]: 15 ng/mL
- Cytotoxicity [2]: 13 ng/mL
- Cytotoxicity [3]: 3.3 ng/mL
- Cytotoxicity [4]: 22 ng/mL
- Ratio [5]: 0.91

SMILES: CC(=O)O[C@@H]1C2=C(C)[C@@H](OC(=O)[C@H](O)[C@@H](NC(=O)c3ccccc3)c3ccccc3)C[C@@](O)([C@@H](OC(=O)c3ccccc3)[C@@H]3[C@]4(O)CO[C@@H]4C[C@H](O)[C@@]3(C)[C@H]1O)C2(C)C
- Cytotoxicity [1]: >1000 ng/mL
- Cytotoxicity [2]: >1000 ng/mL
- Cytotoxicity [3]: >1000 ng/mL
- Cytotoxicity [4]: >1000 ng/mL
- Ratio [5]: > 10

SMILES: CO[C@H]1[C@H](OC(C)=O)C2=C(C)[C@@H](OC(=O)[C@H](O)[C@@H](NC(=O)c3ccccc3)c3ccccc3)C[C@@](O)([C@@H](OC(=O)c3ccccc3)[C@@H]3[C@]4(OC(C)=O)CO[C@@H]4C[C@H](O)[C@]31C)C2(C)C
- Cytotoxicity [1]: 4.7 ng/mL
- Cytotoxicity [2]: 4.8 ng/mL
- Cytotoxicity [3]: 3.1 ng/mL
- Cytotoxicity [4]: 7.8 ng/mL
- Ratio [5]: 1.74

SMILES: CO[C@H]1C[C@H]2OC[C@@]2(OC(C)=O)[C@H]2[C@H](OC(=O)c3ccccc3)[C@]3(O)C[C@H](OC(=O)[C@H](O)[C@@H](NC(=O)c4ccccc4)c4ccccc4)C(C)=C([C@@H](OC(C)=O)[C@H](O)[C@]12C)C3(C)C
- Cytotoxicity [1]: 1.2 ng/mL
- Cytotoxicity [2]: 1.5 ng/mL
- Cytotoxicity [3]: 1.4 ng/mL
- Cytotoxicity [4]: 3.9 ng/mL
- Ratio [5]: 0.92

SMILES: CC(=O)O[C@@H]1C2=C(C)[C@@H](OC(=O)[C@H](O)[C@@H](NC(=O)c3ccccc3)c3ccccc3)C[C@@](O)([C@@H](OC(=O)c3ccccc3)[C@@H]3[C@]4(OC(C)=O)CO[C@@H]4C[C@H](OCC(O)CO)[C@@]3(C)[C@H]1O)C2(C)C (some centres undefined)
- Cytotoxicity [1]: 626 ng/mL
- Cytotoxicity [2]: >1000 ng/mL
- Cytotoxicity [3]: 310 ng/mL
- Cytotoxicity [4]: >1000 ng/mL
- Ratio [5]: 2.02

SMILES: CC(=O)O[C@@H]1C2=C(C)[C@@H](OC(=O)[C@H](O)[C@@H](NC(=O)c3ccccc3)c3ccccc3)C[C@@](O)([C@@H](OC(=O)c3ccccc3)[C@@H]3[C@]4(OC(C)=O)CO[C@@H]4C[C@H](O)[C@@]3(C)[C@H]1O)C2(C)C (stereo in doubt; 2) [listing 1 of 2 here]
- Ratio [5]: 0.75

SMILES: CO[C@H]1C[C@H]2OC[C@@]2(OC(C)=O)[C@H]2[C@H](OC(=O)c3ccccc3)[C@]3(O)C[C@H](OC(=O)[C@H](O)[C@@H](NC(=O)OC(C)(C)C)c4ccccc4)C(C)=C([C@@H](OC(C)=O)[C@H](O)[C@]12C)C3(C)C
- Cytotoxicity [1]: 0.27 ng/mL
- Cytotoxicity [2]: 0.2 ng/mL
- Cytotoxicity [3]: 0.15 ng/mL
- Cytotoxicity [4]: 0.6 ng/mL
- Ratio [5]: 0.35

SMILES: CC(=O)O[C@@H]1C2=C(C)[C@@H](OC(=O)[C@H](O)[C@@H](NC(=O)c3ccccc3)c3ccccc3)C[C@@](O)([C@@H](OC(=O)c3ccccc3)[C@@H]3[C@]4(OC(C)=O)CO[C@@H]4C[C@@H]4OC(C)(C)O[C@@H]1[C@]43C)C2(C)C
- Cytotoxicity [1]: 34 ng/mL
- Cytotoxicity [2]: 34 ng/mL
- Cytotoxicity [3]: 29 ng/mL
- Cytotoxicity [4]: 42 ng/mL
- Ratio [5]: 0.76

SMILES: CC(=O)O[C@@H]1C2=C(C)[C@@H](OC(=O)[C@H](O)[C@@H](NC(=O)c3ccccc3)c3ccccc3)C[C@@](O)([C@@H](OC(=O)c3ccccc3)[C@@H]3[C@]4(OC(C)=O)CO[C@@H]4C[C@H](O)[C@@]3(C)[C@H]1O)C2(C)C (stereo in doubt; 14a) [listing 1 of 2 here]
- Cytotoxicity [1]: 11 ng/mL
- Cytotoxicity [2]: 39 ng/mL
- Cytotoxicity [3]: 1.9 ng/mL
- Cytotoxicity [4]: 140 ng/mL

SMILES: CC(=O)OCCO[C@H]1C[C@H]2OC[C@@]2(OC(C)=O)[C@H]2[C@H](OC(=O)c3ccccc3)[C@]3(O)C[C@H](OC(=O)[C@H](O)[C@@H](NC(=O)c4ccccc4)c4ccccc4)C(C)=C([C@@H](OC(C)=O)[C@H](O)[C@]12C)C3(C)C
- Cytotoxicity [1]: 120 ng/mL
- Cytotoxicity [2]: 43 ng/mL
- Cytotoxicity [3]: 31 ng/mL
- Cytotoxicity [4]: 79 ng/mL
- Ratio [5]: 2.47

SMILES: CC(=O)O[C@H]1C(=O)[C@@]2(C)[C@H]([C@H](OC(=O)c3ccccc3)[C@]3(O)C[C@H](OC(=O)[C@H](O)[C@@H](NC(=O)c4ccccc4)c4ccccc4)C(C)=C1C3(C)C)[C@]1(OC(C)=O)CO[C@@H]1C[C@@H]2O [PACLITAXEL]
- Cytotoxicity [1]: 4.3 ng/mL
- Cytotoxicity [2]: 6.3 ng/mL
- Cytotoxicity [3]: 3.5 ng/mL
- Cytotoxicity [4]: 11 ng/mL
- Ratio [5]: 1

SMILES: CC(=O)O[C@@H]1C2=C(C)[C@@H](OC(=O)[C@H](O)[C@@H](NC(=O)c3ccccc3)c3ccccc3)C[C@@](O)([C@@H](OC(=O)c3ccccc3)[C@@H]3[C@]4(OC(C)=O)CO[C@@H]4C[C@H](OCCO)[C@@]3(C)[C@H]1O)C2(C)C
- Cytotoxicity [1]: 39 ng/mL
- Cytotoxicity [2]: 119 ng/mL
- Cytotoxicity [3]: 10 ng/mL
- Cytotoxicity [4]: 170 ng/mL
- Ratio [5]: 1.77

SMILES: C=CCO[C@H]1C[C@H]2OC[C@@]2(OC(C)=O)[C@H]2[C@H](OC(=O)c3ccccc3)[C@]3(O)C[C@H](OC(=O)[C@H](O)[C@@H](NC(=O)c4ccccc4)c4ccccc4)C(C)=C([C@@H](OC(C)=O)[C@H](O)[C@]12C)C3(C)C
- Cytotoxicity [1]: 1 ng/mL
- Cytotoxicity [2]: 2.7 ng/mL
- Cytotoxicity [3]: 1.2 ng/mL
- Cytotoxicity [4]: 5.3 ng/mL
- Ratio [5]: 1.4

SMILES: CC(=O)O[C@@]12CO[C@@H]1C[C@H](O)[C@]1(C)[C@@H]2[C@H](OC(=O)c2ccccc2)[C@]2(O)C[C@H](OC(=O)[C@H](O)[C@@H](NC(=O)OC(C)(C)C)c3ccccc3)C(C)=C([C@@H](O)[C@@H]1O)C2(C)C
- Cytotoxicity [1]: 0.26 ng/mL
- Cytotoxicity [2]: 0.4 ng/mL
- Cytotoxicity [3]: 0.65 ng/mL
- Cytotoxicity [4]: 2.8 ng/mL
- Ratio [5]: 1.31

SMILES: CC(=O)O[C@@H]1C2=C(C)[C@@H](OC(=O)[C@H](O)[C@@H](NC(=O)c3ccccc3)c3ccccc3)C[C@@](O)([C@@H](OC(=O)c3ccccc3)[C@@H]3[C@]4(OC(C)=O)CO[C@@H]4C[C@@H]4OC(=S)O[C@@H]1[C@]43C)C2(C)C
- Cytotoxicity [1]: 19 ng/mL
- Cytotoxicity [2]: 20 ng/mL
- Cytotoxicity [3]: 11 ng/mL
- Cytotoxicity [4]: 35 ng/mL
- Ratio [5]: 2.78

SMILES: CCC1O[C@H]2C[C@H]3OC[C@@]3(OC(C)=O)[C@H]3[C@H](OC(=O)c4ccccc4)[C@]4(O)C[C@H](OC(=O)[C@H](O)[C@@H](NC(=O)c5ccccc5)c5ccccc5)C(C)=C([C@@H](OC(C)=O)[C@H](O1)[C@]23C)C4(C)C (some centres undefined)
- Cytotoxicity [1]: 23 ng/mL
- Cytotoxicity [2]: 15 ng/mL
- Cytotoxicity [3]: 16 ng/mL
- Cytotoxicity [4]: 22 ng/mL

SMILES: CCN(CC)CCO[C@H]1C[C@H]2OC[C@@]2(OC(C)=O)[C@H]2[C@H](OC(=O)c3ccccc3)[C@]3(O)C[C@H](OC(=O)[C@H](O)[C@@H](NC(=O)c4ccccc4)c4ccccc4)C(C)=C([C@@H](OC(C)=O)[C@H](O)[C@]12C)C3(C)C
- Cytotoxicity [1]: 400 ng/mL
- Cytotoxicity [2]: 110 ng/mL
- Cytotoxicity [3]: 108 ng/mL
- Cytotoxicity [4]: 310 ng/mL
- Ratio [5]: 2.61

SMILES: CC(=O)O[C@@H]1C2=C(C)[C@@H](OC(=O)[C@H](O)[C@@H](NC(=O)c3ccccc3)c3ccccc3)C[C@@](O)([C@@H](OC(=O)c3ccccc3)[C@@H]3[C@]4(OC(C)=O)CO[C@@H]4C[C@H](O)[C@@]3(C)[C@H]1O)C2(C)C (stereo in doubt; 2) [listing 2 of 2 here]
- Cytotoxicity [1]: 22 ng/mL
- Cytotoxicity [2]: 25 ng/mL
- Cytotoxicity [3]: 9.6 ng/mL
- Cytotoxicity [4]: 57 ng/mL

SMILES: CC(=O)O[C@@H]1C2=C(C)[C@@H](OC(=O)[C@H](O)[C@@H](NC(=O)c3ccccc3)c3ccccc3)C[C@@](O)([C@@H](OC(=O)c3ccccc3)[C@@H]3[C@]4(OC(C)=O)CO[C@@H]4C[C@H](O)[C@@]3(C)[C@H]1O)C2(C)C (stereo in doubt; 14a) [listing 2 of 2 here]
- Ratio [5]: 0.83
